For data set [1], the system named is Mus musculus. The experiment in a line: Analgesic activity in albino mouse assessed as protection against thermal-induced paw licking or jumping behaviour at 10 mg/kg, po administered 1 hr prior to testing by hot plate test relative to control. The class given is functional.
Data set [2] has as its system Mus musculus. The data set can be described thus: Analgesic activity in albino mouse assessed as inhibition of abdominal convulsion at 10 mg/kg, po administered 1 hr prior to acetic acid challenge measured at 5 to 8 mins by acetic acid-induced writhing test relative to control. The data set is classed as functional. To be noted: Abdomen. A general note: Writhing tests count abdominal constrictions after an irritant is injected.

Data set [3] concerns Mus musculus. The data set can be described thus: Analgesic activity in po dosed albino mouse assessed as protection against acetic acid-induced writhing administered 1 hr prior to prior to acetic acid challenge measured at 5 to 8 mins. The class given is functional.
Data set [4] in a line: Toxicity in po dosed albino mouse. To be noted: in vivo. The data set is classed as organism-based.

We go through 10 compounds from ChEMBL document CHEMBL2429714, “Synthesis and analgesic activity of monoterpenoid-derived 2-aryl-4,4,7-trimethyl-4a,5,8,8a-tetrahydro-4H-benzo[d][1,3]dioxin-8-ols” (Med Chem Res, 2013).

The structures appear in SMILES notation.

On to `CC1=CC[C@@H]2[C@@H](O[C@H](c3ccc(Cl)cc3)OC2(C)C)[C@@H]1O`, for which the Activity in the data set on Mus musculus [1] is 8%. Moreover, the inhibition in vivo at 10 mg/kg with Mus musculus [2] was found to be 88%. Besides, in the data set with Mus musculus [3], the ED50 amounted to 4.5 mg/kg.
Consider `CC1=CC[C@@H]2[C@@H](O[C@H](c3ccc(F)cc3)OC2(C)C)[C@@H]1O`, for which the Activity with Mus musculus [1] stood at 0%. Also, the inhibition in vivo at 10 mg/kg in the data set with Mus musculus [2] was 40%. In data set [4], this compound returned a 50% lethal dose (LD50) of 1000 mg/kg.
Turning to `CC1=CC[C@@H]2[C@@H](O[C@H](c3ccc(Br)cc3)OC2(C)C)[C@@H]1O`, the Activity with Mus musculus [1] is given as 33%. In addition, the inhibition in vivo at 10 mg/kg in the data set on Mus musculus [2] was 33%.
As for `CC1=CC[C@@H]2[C@@H](O[C@H](c3ccc([N+](=O)[O-])cc3)OC2(C)C)[C@@H]1O`, the Activity in the data set on Mus musculus [1] is reported as 84%. Moreover, the inhibition in vivo at 10 mg/kg with Mus musculus [2] stood at 65%.
On to `CC1=CC[C@@H]2[C@@H](O[C@H](c3cccc(Cl)c3)OC2(C)C)[C@@H]1O`, for which the Activity with Mus musculus [1] is given as 36%. Further, the inhibition in vivo at 10 mg/kg in the data set on Mus musculus [2] amounted to 27%.
On the same counts, the results for `CC1=CC[C@@H]2[C@@H](O[C@H](c3ccc(Cl)c(Cl)c3)OC2(C)C)[C@@H]1O` are 36% and 14%.
For `CC1=CC[C@@H]2[C@@H](O[C@H](c3cccc(F)c3)OC2(C)C)[C@@H]1O`, the Activity in the data set on Mus musculus [1] is reported as 0%. In the data set with Mus musculus [2], the inhibition in vivo at 10 mg/kg was determined as 40%.
On to `CC1=CC[C@@H]2[C@@H](O[C@H](c3ccc(C(F)(F)F)cc3)OC2(C)C)[C@@H]1O`, for which the Activity with Mus musculus [1] was found to be 30%. Moreover, in the data set with Mus musculus [2], the inhibition in vivo at 10 mg/kg amounted to 52%.
As to `CC1=CC[C@@H]2[C@@H](O[C@H](c3cccc(Cl)c3)CC2(C)O)[C@@H]1O` (mixture of isomers), the Activity in the data set with Mus musculus [1] was found to be 14%. Further, the inhibition in vivo at 10 mg/kg in the data set on Mus musculus [2] was determined as 26%.
With `O=C([O-])Cc1ccccc1Nc1c(Cl)cccc1Cl.[Na+]` [DICLOFENAC SODIUM], the Activity in the data set on Mus musculus [1] is 64%. In addition, in the data set with Mus musculus [2], the inhibition in vivo at 10 mg/kg was found to be 90%. Besides, the 50% effective dose (ED50) in the data set on Mus musculus [3] amounted to 5 mg/kg.

In general, inhibition in vivo refers to how much of the control response was suppressed. For orientation: ED50 means the dose at which the effect has come halfway, by size or by number of responders. By LD50 is commonly meant the dose at which mortality reaches 50%. The low end stands for greater toxicity, the high end for lower toxicity.
